According to patent US12661355B2, “Compounds and methods for inducing UCP1 expression” (The Regents of the University of California, priority 2020, dated 2026):

Experiments:
PKA = PKA activity ELISA, brown adipocytes treated overnight; type: cell-based, mouse; details: immortalized brown adipocytes, 10 μM
Description: PKA kinase activity was measured with an ELISA that utilized a synthetic peptide as substrate for PKA and a polyclonal antibody that recognizes the phosphorylated form of the substrate (ab139435, Abcam). PKA activity was measured in lysates from cultured brown adipocytes, mouse BAT, or liver. Cells and tissues were lysed in 20 mM MOPS, 5 mM EGTA, 2 mM EDTA, and 0.1% Triton X-100 supplemented with protease and phosphatase inhibitor as described above. Protein concentration was determined by Bradford assay and 10 μg of cells, 0.25 μg of BAT extract, or 0.5 μg of liver extract were assessed for PKA activation according to the manufacturer's instruction, with minor changes. Briefly, vehicle or Z160 was incubated with brown adipocyte cells overnight or with protein lysates for 30 min, followed by one wash before the primary antibody, 60 min incubation with the primary antibody, 30 min incubation with the secondary antibody, and by 10 min washing. Absorbance was measured after the substrate was added for 20-60 min, depending the intensity of the signal.

[1] = biological target: T1, AKAP1 and the PKA subunits (Mus musculus, UniProt O08715); test: Co-immunoprecipitation of PKA C-α and PKA RII-β with AKAP1; type: cell-based; details: brown adipocytes, 10 μM for 7 h
T1 construct: Immortalized brown adipocyte cells were differentiated for 10 days and treated with 10 μM AST070 or Z160 for 7 h; endogenous in cells; host or cells: immortalized mouse brown adipocytes
Description: Immortalized brown adipocyte cells were differentiated for 10 days and treated with 10 μM AST070 or Z160 for 7 h. Cells were lysed in 150 mM NaCl, 50 mM Tris pH 7.5, 1% Nonidet P40, 0.5% Na-deoxycholate containing protease and phosphatase inhibitors. Cell lysates were incubated overnight at 4° C. with 2 μl of anti-AKAP1 antibody. Twenty microliter of Protein A/G PLUS agarose beads (Santa Cruz Biotechnologies) were added for 2 h at 4° C. After a initial wash (500 mM NaCl, 50 mM Tris pH 7.5, 0.1% Nonidet P40, 0.05% Na-deoxycholate) and a final wash (10 mM Tris pH 7.5, 0.1% Nonidet P40, 0.05% Na-deoxycholate), proteins were eluted from the beads with 1× loading buffer and 2% β-mercaptoethanol, boiled for 10 min and analyzed by Western blot. To avoid detecting the IgG heavy chain, TidyBlot Western Blot reagent:HRP (Bio-Rad) at 1:100 was used as secondary antibody to reveal the PKA subunits from the co-immunoprecipitation blot.
AKAP1 is known to localize PKA to the surface of mitochondria and to relay cAMP signaling for mitochondrial functions. Inspired by this information, an inquiry as to whether treatment with the reported compounds could alter the binding of AKAP1 to mitochondria was undertaken. Analysis began by treating brown adipocytes with Z160 and isolated mitochondria at different times. […]

[2] = system: immortalized brown adipocytes; test: Cellular respiration (Seahorse) in immortalized brown adipocytes; type: cell-based, mouse; details: 10 μM
Description: Cellular respiration was measured using a Seahorse XF24 or XF96 analyzer (Agilent) following known protocols Immortalized brown adipocytes were differentiated in 6-well plates and replated in the Seahorse XF24 plates at a density of 50,000 cells per well using trypsin and collagenase type II. Cells were treated with vehicle (DMSO) or compounds for 18-24 h. Oxygen consumption rates were obtained before and after the sequential injection of 0.75 μM oligomycin, 0.5 μM FCCP, and 0.75 μM rotenone/myxothiazol. Results were normalized to total protein. For human white adipocytes, cells were cultured as described above and differentiated in XF96 microplates. DMSO or Z160 (10 μM) was added at day 17 and for 4 days. Oxygen consumption rates were measured before and after the sequential injection of 1 μM oligomycin, 1 μM FCCP, and 0.5 μM rotenone/antimycin A. For these cells, results were normalized to cell count determined by nuclei fluorescent staining with Hoescht staining imaged on Cytation 5 Imaging Reader and analysis with Gen5 software (BioTek). For both mouse and human cell lines, mitochondrial respiration was calculated by subtracting the non-mitochondrial respiration present after the last injection. Uncoupled respiration corresponds to the respiration difference between oligomycin and the last injections. Maximal respiration was determined after FCCP injection.

[3] = system: human brown adipocyte cell line; test: Cellular respiration in human brown adipocytes; type: cell-based; details: 10 μM for 4 days
Description: Human immortalized brown and white preadipocytes were obtained from Dr. Yu-Hua Tseng (Joslin Diabetes Center, Harvard Medical School, USA). The generation of the two cell lines from human neck adipose tissue biopsies and immortalization was performed as previously described but from a different donor. Cells were cultured in high glucose DMEM supplemented with 10% FBS and antibiotics. Two days after reaching confluence, cells were treated with 30 μM biotin, 500 nM insulin, 17 μM pantothenate, 100 nM dexamethasone, 2 nM 3,3′,5-Triiodo-L-thyronine, 500 μM IBMX, 30 μM indomethacin and 1 μM rosiglitazone, for 12 days. […]
Cellular respiration was measured using a Seahorse XF24 or XF96 analyzer (Agilent) following known protocols Immortalized brown adipocytes were differentiated in 6-well plates and replated in the Seahorse XF24 plates at a density of 50,000 cells per well using trypsin and collagenase type II. […] Oxygen consumption rates were measured before and after the sequential injection of 1 μM oligomycin, 1 μM FCCP, and 0.5 μM rotenone/antimycin A. For these cells, results were normalized to cell count determined by nuclei fluorescent staining with Hoescht staining imaged on Cytation 5 Imaging Reader and analysis with Gen5 software (BioTek). […] Maximal respiration was determined after FCCP injection.

C57BL/6J male mice = test: Thermogenesis in vivo after subcutaneous injection; details: single subcutaneous injection 1.5 mg/kg
Description: All mouse studies were conducted in accordance with and approved by the Institutional Animal Research Committee of the University of California, Los Angeles. C57BL/6J male mice were obtained from the Jackson Laboratory. For the drug injection, Z160 (diluted in 100 μl DMSO) was injected subcutaneously, near BAT, at 1.5 mg/kg body weight and compared with vehicle alone. […] Body temperature was obtained with a rectal probe (BAT-12, Physitemp). Aspartate aminotransferase (AST) activity was determined from plasma according to the manufacturer's protocol (MAK055, Sigma).

Row | Compound | PKA activity (PKA) | signal for PKA subunit precipitation by AKAP1 [1] | maximal respiration [2] | mitochondrial respiration [2] | uncoupled respiration [2] | maximal respiration [3] | mitochondrial respiration (primarily uncoupled respiration) [3] | Ucp1 mRNA and protein levels in BAT (C57BL/6J male mice) | expression of genes implicated in mitochondrial function and lipolysis in BAT (C57BL/6J male mice) | plasma glucose levels (C57BL/6J male mice) [mg/dL] | body temperature (C57BL/6J male mice; measured 24 h later) [°C] | increase in body temperature (C57BL/6J male mice; measured 24 h later, vs vehicle) [°C] | liver toxicity assessed by circulating aspartate aminotransferase (AST) levels (C57BL/6J male mice; plasma)
1 | O=C(CSc1nc2ccccc2c(=O)[nH]1)Nc1ccc2c(c1)OCCO2 [AST070, N-(2,3-dihydro-1,4-benzodioxin-6-yl)-2-[(4-oxo-3,4-dihydroquinazolin-2-yl)sulfanyl]acetamide] | significantly increased | slightly enhanced | significantly elevated | increased | increased | – | – | – | – | – | – | – | –
2 | COc1ccc(NC(=O)CSc2nc3ccccc3c(=O)[nH]2)c(OC)c1 [Z160] | significantly increased | slightly enhanced | showed the same trend | increased | increased | increased | increased | elevated | enhanced expression | 157.6 ± 26.2 | 38.3 | 0.8 | No liver toxicity
